Consider three compounds from patent US11434479B2, “Sialic acid binding polypeptide” (priority 2017, dated 2022).

Changes are numbered by the printed parent chain.

The target of experiment [1] is T1, Streptococcus pneumoniae NanB fragment (residues 30-697, SEQ ID NO:4) variant Sia-PS2, D270A (Streptococcus pneumoniae serotype 4, UniProt Q54727, D270A).
T1 construct: exemplified by a NanB fragment (residues 30-697); made in house; host or cells: pET28a+ based plasmid
T1 sequence (Q54727 30-692 D270A): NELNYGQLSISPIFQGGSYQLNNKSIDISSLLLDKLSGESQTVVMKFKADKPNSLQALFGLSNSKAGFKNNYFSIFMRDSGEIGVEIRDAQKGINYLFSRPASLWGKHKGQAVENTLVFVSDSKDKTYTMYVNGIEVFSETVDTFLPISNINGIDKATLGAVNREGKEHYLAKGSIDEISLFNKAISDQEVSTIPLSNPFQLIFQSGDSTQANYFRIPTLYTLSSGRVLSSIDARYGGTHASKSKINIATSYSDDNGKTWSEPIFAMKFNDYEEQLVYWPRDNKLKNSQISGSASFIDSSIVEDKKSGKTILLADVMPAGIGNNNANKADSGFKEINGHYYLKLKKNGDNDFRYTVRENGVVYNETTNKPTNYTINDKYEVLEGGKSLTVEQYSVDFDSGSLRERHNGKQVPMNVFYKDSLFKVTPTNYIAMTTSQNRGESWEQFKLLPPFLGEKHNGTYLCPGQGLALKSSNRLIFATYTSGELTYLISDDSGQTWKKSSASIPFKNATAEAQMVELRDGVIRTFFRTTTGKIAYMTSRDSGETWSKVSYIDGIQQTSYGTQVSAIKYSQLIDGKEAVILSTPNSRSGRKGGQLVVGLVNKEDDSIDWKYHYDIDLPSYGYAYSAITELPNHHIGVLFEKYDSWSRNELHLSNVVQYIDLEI
Description: Bio-layer Interferometry (BLI) steady-state binding to immobilized oligosaccharides. The note with it: in words. From the text: (§1) Lsp=lactose (no sialic acid), 3′SL=α2,3-sialyllactose, 6′SL=α2,6-sialyllactose, GD3=GD3 oligosaccharide that contains a terminal α2,8-linked Neu5Ac residue and an internal α2,3-linked Neu5Ac residue.
(§2) The pan-specific sialic acid-recognizing affinity reagent of the invention is exemplified by a NanB fragment (residues 30-697; SEQ ID NO:4) with a single mutation. Exemplary mutation sites include Y653, D270, and E541. Exemplary pan-specific affinity reagents, each having a single mutation in the NanB GH domain as noted, are shown in Table 2 and include Sia-PS1 (Y653F), Sia-PS2 (D270A), Sia-PS3 (D270N), Sia-PS4 (E541A), and Sia-PS5 (E541Q). […] They reduce (Sia-PS2 and Sia-PS3) or effectively eliminate (Sia-PS1, Sia-PS4, and Sia-PS5) catalytic activity, and they broaden specificity for sialic acid ligand binding. The pan-specific sialic acid-recognizing affinity reagent we chose for further validation study was Sia-PS1 that contains the Y653F at active site residue Tyr653. This one mutation, which involves removal of a single hydroxyl group, not only eliminates enzyme activity, but astonishingly introduces pan-specific binding into the mutated, inactivated enzyme, despite its distance from the carbohydrate binding module (CBM) domain of the NanB.
(§3) The flowchart presented in FIG. 2 outlines schematically the methods employed in Example I and II to screen, optimize and select the Lectenz® candidates. The specificity and affinity of potential Lectenz® candidates is evaluated through structurally-guided site-specific and/or site-saturation mutagenesis assays designed to enable the selection of optimal clones. Bio-layer Interferometry (BLI) is used to determine the binding kinetics and affinities for binding to glycans and glycoproteins. Affinity chromatography is performed by immobilizing the Lectenz® candidates in a column format to evaluate their ability to fractionate sialylated- and asialo-glycans and glycoconjugates. All promising Lectenz® candidates are screened against the glycan array at the CFG, which currently contains over 600 O- and N-linked glycans.
(§4) Steady-state binding constants between Lectenz® candidates and sialic acid ligands were measured by BLI.

Experiment [2] addresses T2, Streptococcus pneumoniae NanB fragment (residues 30-697, SEQ ID NO:4) variant Sia-PS3, D270N (Streptococcus pneumoniae serotype 4, UniProt Q54727, D270N).
T2 construct: exemplified by a NanB fragment (residues 30-697); made in house; host or cells: pET28a+ based plasmid
T2 sequence (Q54727 30-692 D270N): T1 sequence (Q54727 30-692 D270A) with A241N
The experiment is described as above. To be noted: in words.
Source text: as §1, §2, §3, §4

For the compound `CC(=O)N[C@H]1[C@H]([C@H](O)[C@H](O)CO)O[C@@](O[C@H](CO)[C@@H](O)[C@@H]2O[C@@](O[C@H]3[C@@H](O)[C@@H](CO)O[C@@H](O[C@H]4[C@H](O)[C@@H](O)C(O)O[C@@H]4CO)[C@@H]3O)(C(=O)O)C[C@H](O)[C@H]2NC(C)=O)(C(=O)O)C[C@@H]1O` (stereo partly shown) [GD3, Neu5Acα2,8Neu5Acα2,3Galβ1, 4Glcβ], the binding affinity entry in experiment [1] and in experiment [2] was “micromolar or sub-micromolar” each time.

In the case of `CC(=O)N[C@H]1[C@H]([C@H](O)[C@H](O)CO)O[C@@](OC[C@H]2O[C@@H](O[C@H]3[C@H](O)[C@@H](O)C(O)O[C@@H]3CO)[C@H](O)[C@@H](O)[C@H]2O)(C(=O)O)C[C@@H]1O` (stereo partly shown) [6′SL, 6′-sialyllactose (Neu5Acα2,6Galβ1, 4Glcβ, or 6′SL)], the binding affinity entry in experiment [1] and in experiment [2] was “micromolar or sub-micromolar” in each case.

As to `CC(=O)N[C@H]1[C@H]([C@H](O)[C@H](O)CO)O[C@@](O[C@H]2[C@@H](O)[C@@H](CO)O[C@@H](O[C@H]3[C@H](O)[C@@H](O)C(O)O[C@@H]3CO)[C@@H]2O)(C(=O)O)C[C@@H]1O` (stereo partly drawn) [3′SL, α2,3-sialyllactose], in experiment [1], the KD value entry is on record as “higher KD value”. The binding affinity entry in experiment [1] and in experiment [2] was “micromolar or sub-micromolar” throughout.
